In the NIST ThermoML archive (doi:10.1016/j.jct.2012.06.012):
± gives the expanded uncertainty stated by the source.

Experiment: xn = mol fraction of the nth substance listed
Conditions: Liquid, Vibrating tube method

CCCCCCCCCC [decane] + CCO
mass density (342.81 K, 1000 kPa, x2 = 0.0937): 691.26 ± 0.23 kg/m3 | mass density (342.81 K, 1000 kPa, x2 = 0.1011): 691.32 ± 0.23 kg/m3 | mass density (342.81 K, 1000 kPa, x2 = 0.4963): 698.84 ± 0.22 kg/m3 | mass density (342.81 K, 2000 kPa, x2 = 0.0937): 692.32 ± 0.24 kg/m3 | mass density (342.81 K, 2000 kPa, x2 = 0.1011): 692.38 ± 0.24 kg/m3 | mass density (342.81 K, 2000 kPa, x2 = 0.4963): 699.92 ± 0.24 kg/m3 | mass density (342.81 K, 3000 kPa, x2 = 0.0937): 693.37 ± 0.25 kg/m3 | mass density (342.81 K, 3000 kPa, x2 = 0.1011): 693.43 ± 0.25 kg/m3 | mass density (342.81 K, 3000 kPa, x2 = 0.4963): 700.98 ± 0.25 kg/m3 | mass density (342.81 K, 4000 kPa, x2 = 0.0937): 694.4 ± 0.27 kg/m3 | mass density (342.81 K, 4000 kPa, x2 = 0.1011): 694.46 ± 0.27 kg/m3 | mass density (342.81 K, 4000 kPa, x2 = 0.4963): 702.03 ± 0.26 kg/m3 | mass density (342.81 K, 5000 kPa, x2 = 0.0937): 695.42 ± 0.28 kg/m3 | mass density (342.81 K, 5000 kPa, x2 = 0.1011): 695.48 ± 0.28 kg/m3 | mass density (342.81 K, 5000 kPa, x2 = 0.4963): 703.09 ± 0.28 kg/m3 | mass density (342.81 K, 6000 kPa, x2 = 0.0937): 696.42 ± 0.3 kg/m3 | mass density (342.81 K, 6000 kPa, x2 = 0.1011): 696.48 ± 0.3 kg/m3 | mass density (342.81 K, 6000 kPa, x2 = 0.4963): 704.13 ± 0.29 kg/m3 | mass density (342.81 K, 7000 kPa, x2 = 0.0937): 697.41 ± 0.31 kg/m3 | mass density (342.81 K, 7000 kPa, x2 = 0.1011): 697.47 ± 0.31 kg/m3 | mass density (342.81 K, 7000 kPa, x2 = 0.4963): 705.18 ± 0.3 kg/m3 | mass density (342.81 K, 8000 kPa, x2 = 0.0937): 698.4 ± 0.33 kg/m3 | mass density (342.81 K, 8000 kPa, x2 = 0.1011): 698.46 ± 0.33 kg/m3 | mass density (342.81 K, 8000 kPa, x2 = 0.4963): 706.22 ± 0.32 kg/m3 | mass density (342.81 K, 9000 kPa, x2 = 0.0937): 699.37 ± 0.34 kg/m3 | mass density (342.81 K, 9000 kPa, x2 = 0.1011): 699.44 ± 0.34 kg/m3 | mass density (342.81 K, 9000 kPa, x2 = 0.4963): 707.25 ± 0.33 kg/m3 | mass density (342.81 K, 10000 kPa, x2 = 0.0937): 700.35 ± 0.35 kg/m3 | mass density (342.81 K, 10000 kPa, x2 = 0.1011): 700.42 ± 0.35 kg/m3 | mass density (342.81 K, 10000 kPa, x2 = 0.4963): 708.27 ± 0.34 kg/m3 | mass density (342.81 K, 11000 kPa, x2 = 0.0937): 701.32 ± 0.37 kg/m3 | mass density (342.81 K, 11000 kPa, x2 = 0.1011): 701.38 ± 0.37 kg/m3 | mass density (342.81 K, 11000 kPa, x2 = 0.4963): 709.28 ± 0.36 kg/m3 | mass density (342.81 K, 12000 kPa, x2 = 0.0937): 702.28 ± 0.38 kg/m3 | mass density (342.81 K, 12000 kPa, x2 = 0.1011): 702.33 ± 0.38 kg/m3 | mass density (342.81 K, 12000 kPa, x2 = 0.4963): 710.29 ± 0.37 kg/m3 | mass density (342.81 K, 13000 kPa, x2 = 0.0937): 703.21 ± 0.39 kg/m3 | mass density (342.81 K, 13000 kPa, x2 = 0.1011): 703.27 ± 0.39 kg/m3 | mass density (342.81 K, 13000 kPa, x2 = 0.4963): 711.26 ± 0.38 kg/m3 | mass density (342.81 K, 14000 kPa, x2 = 0.0937): 704.14 ± 0.41 kg/m3 | mass density (342.81 K, 14000 kPa, x2 = 0.1011): 704.2 ± 0.41 kg/m3 | mass density (342.81 K, 14000 kPa, x2 = 0.4963): 712.23 ± 0.4 kg/m3 | mass density (342.81 K, 15000 kPa, x2 = 0.0937): 705.06 ± 0.42 kg/m3 | mass density (342.81 K, 15000 kPa, x2 = 0.1011): 705.12 ± 0.42 kg/m3 | mass density (342.81 K, 15000 kPa, x2 = 0.4963): 713.19 ± 0.41 kg/m3 | mass density (342.81 K, 16000 kPa, x2 = 0.0937): 705.95 ± 0.44 kg/m3 | mass density (342.81 K, 16000 kPa, x2 = 0.1011): 706.02 ± 0.44 kg/m3 | mass density (342.81 K, 16000 kPa, x2 = 0.4963): 714.13 ± 0.42 kg/m3 | mass density (342.81 K, 17000 kPa, x2 = 0.0937): 706.83 ± 0.45 kg/m3 | mass density (342.81 K, 17000 kPa, x2 = 0.1011): 706.9 ± 0.45 kg/m3 | mass density (342.81 K, 17000 kPa, x2 = 0.4963): 715.07 ± 0.44 kg/m3 | mass density (342.81 K, 18000 kPa, x2 = 0.0937): 707.7 ± 0.46 kg/m3 | mass density (342.81 K, 18000 kPa, x2 = 0.1011): 707.77 ± 0.46 kg/m3 | mass density (342.81 K, 18000 kPa, x2 = 0.4963): 715.97 ± 0.45 kg/m3 | mass density (342.81 K, 19000 kPa, x2 = 0.0937): 708.56 ± 0.48 kg/m3 | mass density (342.81 K, 19000 kPa, x2 = 0.1011): 708.63 ± 0.48 kg/m3 | mass density (342.81 K, 19000 kPa, x2 = 0.4963): 716.86 ± 0.46 kg/m3 | mass density (342.81 K, 20000 kPa, x2 = 0.0937): 709.39 ± 0.49 kg/m3 | mass density (342.81 K, 20000 kPa, x2 = 0.1011): 709.45 ± 0.49 kg/m3 | mass density (342.81 K, 20000 kPa, x2 = 0.4963): 717.73 ± 0.48 kg/m3 | mass density (342.86 K, 1000 kPa, x2 = 0.7526): 711.77 ± 0.21 kg/m3 | mass density (342.86 K, 1000 kPa, x2 = 0.9014): 726.79 ± 0.21 kg/m3 | mass density (342.86 K, 2000 kPa, x2 = 0.7526): 712.88 ± 0.23 kg/m3 | mass density (342.86 K, 2000 kPa, x2 = 0.9014): 727.93 ± 0.22 kg/m3 | mass density (342.86 K, 3000 kPa, x2 = 0.7526): 713.97 ± 0.24 kg/m3 | mass density (342.86 K, 3000 kPa, x2 = 0.9014): 729.05 ± 0.23 kg/m3 | mass density (342.86 K, 4000 kPa, x2 = 0.7526): 715.06 ± 0.25 kg/m3 | mass density (342.86 K, 4000 kPa, x2 = 0.9014): 730.15 ± 0.24 kg/m3 | mass density (342.86 K, 5000 kPa, x2 = 0.7526): 716.15 ± 0.27 kg/m3 | mass density (342.86 K, 5000 kPa, x2 = 0.9014): 731.27 ± 0.25 kg/m3 | mass density (342.86 K, 6000 kPa, x2 = 0.7526): 717.23 ± 0.28 kg/m3 | mass density (342.86 K, 6000 kPa, x2 = 0.9014): 732.36 ± 0.27 kg/m3 | mass density (342.86 K, 7000 kPa, x2 = 0.7526): 718.31 ± 0.29 kg/m3 | mass density (342.86 K, 7000 kPa, x2 = 0.9014): 733.45 ± 0.28 kg/m3 | mass density (342.86 K, 8000 kPa, x2 = 0.7526): 719.38 ± 0.3 kg/m3 | mass density (342.86 K, 8000 kPa, x2 = 0.9014): 734.54 ± 0.29 kg/m3 | mass density (342.86 K, 9000 kPa, x2 = 0.7526): 720.44 ± 0.32 kg/m3 | mass density (342.86 K, 9000 kPa, x2 = 0.9014): 735.62 ± 0.3 kg/m3 | mass density (342.86 K, 10000 kPa, x2 = 0.7526): 721.49 ± 0.33 kg/m3 | mass density (342.86 K, 10000 kPa, x2 = 0.9014): 736.69 ± 0.31 kg/m3 | mass density (342.86 K, 11000 kPa, x2 = 0.7526): 722.54 ± 0.34 kg/m3 | mass density (342.86 K, 11000 kPa, x2 = 0.9014): 737.75 ± 0.33 kg/m3 | mass density (342.86 K, 12000 kPa, x2 = 0.7526): 723.57 ± 0.36 kg/m3 | mass density (342.86 K, 12000 kPa, x2 = 0.9014): 738.79 ± 0.34 kg/m3 | mass density (342.86 K, 13000 kPa, x2 = 0.7526): 724.58 ± 0.37 kg/m3 | mass density (342.86 K, 13000 kPa, x2 = 0.9014): 739.82 ± 0.35 kg/m3 | mass density (342.86 K, 14000 kPa, x2 = 0.7526): 725.59 ± 0.38 kg/m3 | mass density (342.86 K, 14000 kPa, x2 = 0.9014): 740.84 ± 0.36 kg/m3 | mass density (342.86 K, 15000 kPa, x2 = 0.7526): 726.57 ± 0.39 kg/m3 | mass density (342.86 K, 15000 kPa, x2 = 0.9014): 741.84 ± 0.37 kg/m3
